Assay results published in patent US6448283B1, “Methods for preventing/treating damage to sensory hair cells and cochlear neurons” (Cephalon, Inc., priority 1998, dated 2002).

Tested on: noise-exposed guinea pigs
Experiment: ABR threshold shifts, delayed dosing after noise trauma
Type: in vivo, guinea pig
Experimental: Guinea pigs were exposed to 120 dB, 4 kHz noise for 6 hr. The compound of Formula II was administered beginning 2 hours to 1 day prior to noise trauma, or 1 day after noise trauma, or 4 days after noise trauma. Dosing continued for 2 weeks after noise exposure. As described above, cochleas were prepared and numbers of preserved and lost inner hair cells (IHCs) and outer hair cells of different rows (OHC1, OHC2, OHC3) were counted 2 weeks post noise trauma.
ABRs were determined 1 day before noise trauma (baseline values) and 2 weeks post noise trauma. […] Thresholds were determined at frequencies 2, 4, 8, 16 and 32 kHz from a set of responses at varying intensities with 5 dB intervals and 1000 sweeps near the threshold. ABRs were measured with System II hardware and BioSig software. Ketamine (40 mg/kg) and xylazine (10 mg/kg) were used for anaesthesia.

In the case of `CCSCc1ccc2c(c1)c1c3c(c4c5cc(CSCC)ccc5n5c4c1n2C1C[C@](O)(C(=O)OC)[C@]5(C)O1)CNC3=O` [Formula II], the “average threshold shift of control animals greater than that of treated animals” value (Formula II begun prior to the lesion, noise 120 dB 4 kHz 6 hr, 2 weeks post noise) is reported as 20-40 dB, the “ABR threshold shift versus vehicle-treated, noise-exposed controls” value (Formula II-treated animals, 2 weeks post noise) is reported as “less threshold shift at all frequencies tested” and the “ABR threshold shift, delayed administration” value (administration begun 1 or 4 days after exposure to noise) is reported as “Decreased threshold shifts”.
